Broadly, the melting point is the temperature of the solid-liquid transition.

The structures appear in SMILES notation.

Here are results for 33 molecules from patent US8716289B2, “Carbamate derivatives of alkyl-heterocycles, preparation thereof and therapeutic use thereof” (Sanofi, priority 2008, dated 2014).

In turn, `CNC(=O)c1cc(COC(=O)NC2CCN(c3nnc(Cl)c4ccccc34)CC2)on1` [Compound 75, 3-methylcarbamoylisoxazol-5-ylmethyl [1-(4-chlorophthalazin-1-yl)piperidin-4-yl]carbamate] gave a melting point of 208 to 210 °C.

On to `CNC(=O)c1cc(COC(=O)NCCC2CCN(c3cccc(-c4ccc(F)cc4)n3)CC2)on1` [Compound 22, 3-methylcarbamoylisoxazol-5-ylmethyl 2-[6′-(4-fluoro-phenyl)-3,4,5,6-tetrahydro-2H-[1,2′]bipyridinyl-4-yl]-ethylcarbamate], for which the melting point lay in the range of 155.5 to 157.5 °C. Under `CCOC(=O)c1cc(COC(=O)NCC2(F)CCN(c3ccc4cc(Cl)ccc4n3)CC2)on1` [Compound 56, ethyl 5-[1-(6-chloroquinolin-2-yl)-4-fluoropiperidin-4-ylmethylcarbamoyloxymethyl]isoxazole-3-carboxylate] stands 132 to 134 °C.

On to `CCOC(=O)c1cc(COC(=O)NCC2(F)CCN(c3nccc(C(F)(F)F)n3)CC2)on1` [Compound 51, ethyl 5-[4-fluoro-1-(4-trifluoromethylpyrimidin-2-yl)-piperidin-4-ylmethylcarbamoyloxymethyl]isoxazole-3-carboxylate], for which the melting point fell in the range of 136 to 138 °C.

`CNC(=O)c1cc(COC(=O)NCCC2(CC(C)C)CCN(c3ccc([N+](=O)[O-])cc3C(F)(F)F)CC2)on1` [Compound 66, 3-methylcarbamoylisoxazol-5-ylmethyl {2-[4-isobutyl-1-(4-nitro-2-trifluoromethylphenyl)piperidin-4-yl]ethyl}carbamate] had a melting point of 145 to 147 °C. Under `CC(C)c1nc(COC(=O)NCCC2CCN(c3ccc(-c4ccc(F)cc4)cn3)CC2)no1` [Compound 11, 5-isopropyl[1,2,4]oxadiazol-3-ylmethyl 2-[5′-(4-fluorophenyl)-3,4,5,6-tetrahydro-2H-[1,2′]bipyridinyl-4-yl]-ethylcarbamate] stands 112 to 113 °C; under `O=C(NCCC1CCN(c2ccc3cc(Cl)ccc3n2)CC1)OCc1nc(-c2ccc(F)cc2)no1` [Compound 15, 3-(4-fluorophenyl)[1,2,4]oxadiazol-5-ylmethyl 2-[1-(6-chloroquinolin-2-yl)piperidin-4-yl]ethylcarbamate], 160 to 162 °C. Under `CN(C)C(=O)c1cc(COC(=O)NCCC2CCN(c3ccc(-c4ccc(F)cc4)cn3)CC2)on1` [Compound 30, 3-dimethylcarbamoylisoxazol-5-ylmethyl 2-[5′-(4-fluorophenyl)-3,4,5,6-tetrahydro-2H-[1,2′]bipyridinyl-4-yl]-ethylcarbamate] stands 149 to 151 °C; under `NC(=O)c1cc(COC(=O)NCCC2CCN(c3ccc(-c4cccc(F)c4)cn3)CC2)on1` [Compound 28, 3-carbamoylisoxazol-5-ylmethyl 2-[5′-(3-fluorophenyl)-3,4,5,6-tetrahydro-2H-[1,2′]bipyridinyl-4-yl]ethylcarbamate], 172 to 176 °C; under `CNC(=O)c1cc(COC(=O)NCCC2CCN(c3cncc(-c4ccc(F)cc4)n3)CC2)on1` [Compound 32, 3-methylcarbamoylisoxazol-5-ylmethyl 2-{1-[6-(4-fluorophenyl)pyrazin-2-yl]piperidin-4-yl}ethylcarbamate], 150 to 152 °C.

`CNC(=O)c1cc(COC(=O)NCCC2(C)CCN(c3cnc4cc(Cl)ccc4n3)CC2)on1` [Compound 78, 3-methylcarbamoylisoxazol-5-ylmethyl {2-[1-(6-chloroquinoxalin-2-yl)-4-methylpiperidin-4-yl]ethyl}carbamate] gave a melting point of 167 to 169 °C. For the molecule `O=C(NCCC1CCN(c2ccc3cc(Cl)ccc3n2)CC1)OCc1cc(C(=O)O)no1` [Compound 53, 5-{2-[1-(6-chloroquinolin-2-yl)piperidin-4-yl]ethylcarbamoyloxymethyl}isoxazole-3-carboxylic acid], the melting point was in the range of 180 to 182 °C.

Take `CC(C)c1noc(COC(=O)NCCC2CCN(c3ccc(-c4ccc(F)cc4)cn3)CC2)n1` [Compound 7, 3-isopropyl[1,2,4]oxadiazol-5-ylmethyl 2-[5′-(4-fluorophenyl)-3,4,5,6-tetrahydro-2H-[1,2′]bipyridinyl-4-yl]-ethylcarbamate]: the melting point was in the range of 96 to 98 °C. `CC(C)CC(OC(=O)NCCC1CCN(c2cccc(-c3ccc(F)cc3)n2)CC1)c1ccoc1` (racemic): the melting point fell in the range of 101 to 103 °C. On to `CN(C)C1(CCNC(=O)OC(c2nccn2C)C(F)(F)F)CN(c2nnc(Cl)c3ccccc23)C1` (racemic) [Compound 63, 2,2,2-trifluoro-1-(1-methyl-1H-imidazol-2-yl)ethyl {2-[1-(4-chlorophthalazin-1-yl)-3-dimethylaminoazetidin-3-yl]ethyl}-carbamate], for which the melting point was in the range of 168 to 170 °C.

Molecule `CNC(=O)c1cc(COC(=O)NC2CCN(c3cnc4cc(Cl)ccc4n3)CC2)on1` [Compound 77, 3-methylcarbamoylisoxazol-5-ylmethyl [1-(6-chloroquinoxalin-2-yl)piperidin-4-yl]carbamate] displayed a melting point of 232 to 234 °C.

As for `O=C(NCCC1CCN(c2ccc3cc(Cl)ccc3n2)CC1)OCc1nsc(-c2ccc(Cl)cc2)n1` [Compound 17, 5-(4-chlorophenyl)[1,2,4]thiadiazol-3-ylmethyl 2-[1-(6-chloroquinolin-2-yl)piperidin-4-yl]ethylcarbamate], the melting point was 191 to 193 °C. Under `NC(=O)c1cc(COC(=O)NCCC2CN(c3nccc(C(F)(F)F)n3)C2)on1` [Compound 82, 3-carbamoylisoxazol-5-ylmethyl {2-[1-(4-trifluoromethylpyrimidin-2-yl)azetidin-3-yl]ethyl}carbamate] stands 163 to 165 °C; under `NC(=O)c1cc(COC(=O)NCCC2CCN(c3ccc4cc(F)ccc4n3)CC2)on1` [Compound 23, 3-carbamoylisoxazol-5-ylmethyl 2-[1-(6-fluoroquinolin-2-yl)piperidin-4-yl]ethylcarbamate], 200 to 202 °C; under `CNC(=O)c1cc(COC(=O)NCCC2CCN(c3ccc(-c4ccc(F)cc4)cn3)CC2)on1` [Compound 26, 3-methylcarbamoylisoxazol-5-ylmethyl 2-[5′-(4-fluorophenyl)-3,4,5,6-tetrahydro-2H-[1,2′]bipyridinyl-4-yl]-ethylcarbamate], 191 to 193 °C. Under `O=C(NCCC1CCN(c2ccc3cc(Cl)ccc3n2)CC1)OCc1csnn1` [Compound 18, [1,2,3]thiadiazol-4-ylmethyl 2-[1-(6-chloroquinolin-2-yl)piperidin-4-yl]ethylcarbamate] stands 146 to 148 °C; under `CNC(=O)c1cc(COC(=O)NCCC2CCN(c3cnc(-c4ccc(F)cc4)cn3)CC2)on1` [Compound 69, 3-methylcarbamoylisoxazol-5-ylmethyl (2-{1-[5-(4-fluorophenyl)pyrazin-2-yl]piperidin-4-yl}ethyl)carbamate], 181.5 to 183.5 °C; under `CNC(=O)c1cc(COC(=O)NC2CCN(c3nccc(C(F)(F)F)n3)CC2)on1` [Compound 70, 3-methylcarbamoylisoxazol-5-ylmethyl [1-(4-trifluoromethylpyrimidin-2-yl)piperidin-4-yl]carbamate], 197 to 199 °C.

As to `O=C(NCCC1CCN(c2ccc3cc(Cl)ccc3n2)CC1)OCc1nc(-c2cccc(F)c2)no1` [Compound 16, 3-(3-fluorophenyl)[1,2,4]oxadiazol-5-ylmethyl 2-[1-(6-chloroquinolin-2-yl)piperidin-4-yl]ethylcarbamate], the melting point is 134 to 136 °C. Take `CC(C)(C)c1nnc(COC(=O)NCCC2CCN(c3ccc(-c4ccc(F)cc4)cn3)CC2)s1` [Compound 10, 5-tert-butyl[1,3,4]thiadiazol-2-ylmethyl 2-[5′-(4-fluorophenyl)-3,4,5,6-tetrahydro-2H-[1,2′]bipyridinyl-4-yl]-ethylcarbamate]: the melting point was in the range of 139 to 140 °C. Under `CC(C)CC(OC(=O)NCCC1CCN(c2ccc3cc(Cl)ccc3n2)CC1)c1ccoc1` (racemic) stands 97 to 99 °C; under `CNC(=O)c1cc(COC(=O)NCCC2CCN(c3ccc4cc(F)ccc4n3)CC2)on1` [Compound 25, 3-methylcarbamoylisoxazol-5-ylmethyl 2-[1-(6-fluoroquinolin-2-yl)piperidin-4-yl]ethylcarbamate], 180 to 182 °C; under `CCOC(=O)c1cc(COC(=O)NCCC2CCN(c3ccc4cc(Cl)ccc4n3)CC2)on1` [Compound 71, ethyl 5-{2-[1-(6-chloroquinolin-2-yl)piperidin-4-yl]-ethylcarbamoyloxymethyl}isoxazole-3-carboxylate], 117 to 119 °C. `CNC(=O)c1cc(COC(=O)NCCC2CCN(c3ccc4cc(Cl)ccc4n3)CC2)on1` [Compound 20, 3-methylcarbamoylisoxazol-5-ylmethyl 2-[1-(6-chloroquinolin-2-yl)piperidin-4-yl]ethylcarbamate] returned a melting point of 200 to 202 °C. Under `Cn1ccnc1C(OC(=O)NCCC1CCN(c2ccc3cc(Cl)ccc3n2)CC1)C(F)(F)F` (racemic) [Compound 73, 2,2,2-trifluoro-1-(1-methyl-1H-imidazol-2-yl)ethyl {2-[1-(6-chloroquinolin-2-yl)piperidin-4-yl]ethyl}carbamate] stands 196 to 198 °C. Turning to `NC(=O)c1coc(COC(=O)NCCC2CCN(c3ccc(-c4ccc(F)cc4)cn3)CC2)n1` [Compound 21, 4-carbamoyloxazol-2-ylmethyl 2-[5′-(4-fluorophenyl)-3,4,5,6-tetrahydro-2H-[1,2′]bipyridinyl-4-yl]ethylcarbamate], the melting point fell in the range of 206 to 208 °C. Under `NC(=O)c1cc(COC(=O)NC2CCCN(c3nccc(C(F)(F)F)n3)CC2)on1` (racemic) [Compound 74, 3-carbamoylisoxazol-5-ylmethyl (±)[1-(4-trifluoromethylpyrimidin-2-yl)azepan-4-yl]carbamate] stands 171 to 173 °C. `Cn1ccc(COC(=O)NCCC2CCN(c3ccc(-c4ccc(F)cc4)cn3)CC2)n1` [Compound 8, 1-methyl-1H-pyrazol-3-ylmethyl 2-[5′-(4-fluorophenyl)-3,4,5,6-tetrahydro-2H-[1,2′]bipyridinyl-4-yl]ethylcarbamate]: the melting point was in the range of 154 to 156 °C.
